This is an account of results in US8362012B2, “Benzoxazine benzimidazole derivative, a pharmaceutical composition comprising the same, and a use thereof” (Daewoong Pharmaceutical Co., Ltd., priority 2008, dated 2013).

Broadly, the IC50 is the concentration that gives 50% inhibition.

In assay [1] the target is T1, human vanilloid-1 (hVR-1) in hVR-1-HEK293 cell line (Homo sapiens, UniProt Q8NER1).
T1 construct: expressed in transfected cells; host or cells: HEK293 Tet-on strain, doxycycline-induced
Briefly: Inhibitory effect on calcium influx via a vanilloid receptor (capsaicin-stimulated, Fluo-3/AM). It counts as cell-based. Conditions: hVR-1-HEK293 cells, 1 μM of capsaicin, compounds 0.015˜2000 nM; read-out: I.A. (inhibitory activity), IC50 on intracellular calcium influx. Here is the method:
The cell line can modulate the expression of VR-1, depending on whether doxycycline, a derivative of tetracycline, is present or not. […] Specifically, hVR-1-HEK293 cells were cultured in a T75 flask to about 80% confluency, separated from the flask by treating with trypsin solution, and then collected by centrifugation. The cells were suspended in a medium containing 1 μg/mL of doxycycline, and the resulting suspension was diluted to a concentration of 2˜4×10^5 cells/mL […], of the cell suspension was placed in each well of a 96-well black plate. The cells were cultured in 5% CO2 incubator at 37° C. for 2 days, and used for the following procedure. […] The cells prepared in 1) above were cultured at 37° C. for 90 min in a solution containing Fluo-3/AM, a fluorescent dye, as a calcium indicator so that the fluorescent dye was permeated into the cells. […] In order to stimulate calcium influx through a vanilloid receptor, the cells were treated with 1 μM of capsaicin. […] The obtained data were input to the Hill equation represented by the following formula I and the values were analyzed: Intracellular calcium influx= [(fluorescent intensity of experimental group−fluorescent intensity of background)/(fluorescent intensity of positive control−fluorescent intensity of background)]*100 [Formula I] The inhibitory activities were evaluated from the obtained intracellular calcium influx values according to the following criteria.

Another assay deals with ICR male mice. Briefly: Phenyl-p-quinone (PBQ)-induced writhing experiment using mice. Conditions: orally administered, PBQ (0.02%) intraperitoneally after 1 hour, writhing counted for 10 min. The class given is in vivo. On the procedure: In order to evaluate the effect on pain of the compounds prepared in the Examples, behaviors such as twisting or writhing of body resulted from pain were verified by the phenyl-p-quinone (PBQ)-induced writhing experiment using mice. 5 week-old ICR male mice were used as experimental animals and PBQ (0.02%), as a chemical stimulator. The suspensions of 20 mg of the compounds of the present invention and an excipient such as Na—CMC (sodium carboxymethyl cellulose) in 10 mL of saline were used as test compounds. The test compounds were orally administered to the mice and after 1 hour, PBQ was intraperitoneally administrated in an amount of 10 mL per kg of body weight. Also, as a control group, equivalent amounts of BCTC were administered. The writhing number of each mouse was measured for 10 min starting from 5 min after the administration, and the analgesic effect was verified by counting the reduced number compared to the control group administered with only excipient and calculating the % inhibitory rate according to the following Formula 2. % inhibition rate=(writhing # of control group−writhing # of test group)/writhing # of control group×100 [Formula 2]

T1 sequence (Q8NER1 whole entry): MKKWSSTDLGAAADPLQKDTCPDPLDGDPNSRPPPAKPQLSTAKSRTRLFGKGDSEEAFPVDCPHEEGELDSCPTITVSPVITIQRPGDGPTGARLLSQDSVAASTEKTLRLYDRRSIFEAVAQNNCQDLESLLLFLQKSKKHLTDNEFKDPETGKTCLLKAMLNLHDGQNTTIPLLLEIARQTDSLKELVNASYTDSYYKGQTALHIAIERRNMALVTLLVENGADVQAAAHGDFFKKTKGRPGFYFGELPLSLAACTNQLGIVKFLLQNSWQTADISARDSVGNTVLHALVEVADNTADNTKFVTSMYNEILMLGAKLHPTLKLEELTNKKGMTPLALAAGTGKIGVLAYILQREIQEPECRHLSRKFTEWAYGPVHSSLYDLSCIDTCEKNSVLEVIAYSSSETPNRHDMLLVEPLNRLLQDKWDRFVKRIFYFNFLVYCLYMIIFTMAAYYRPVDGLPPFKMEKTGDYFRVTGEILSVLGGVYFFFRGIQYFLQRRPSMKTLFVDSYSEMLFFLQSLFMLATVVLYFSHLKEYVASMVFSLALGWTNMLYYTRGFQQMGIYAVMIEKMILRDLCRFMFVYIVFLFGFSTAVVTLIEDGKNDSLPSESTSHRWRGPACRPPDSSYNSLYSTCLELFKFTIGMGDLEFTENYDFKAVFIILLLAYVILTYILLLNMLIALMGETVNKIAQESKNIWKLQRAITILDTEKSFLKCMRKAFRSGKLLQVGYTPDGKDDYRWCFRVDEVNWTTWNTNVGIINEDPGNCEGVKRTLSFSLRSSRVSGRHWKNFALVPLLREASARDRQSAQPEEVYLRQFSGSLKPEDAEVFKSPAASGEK

Regarding `CCc1ccc(N2c3cccc(-c4nc5c(F)cc(Br)cc5[nH]4)c3OC[C@@H]2CO)nc1` [Example 85, [(S)-8-(6-bromo-4-fluoro-1H-benzimidazol-2-yl)-4-(5-ethyl-pyridin-2-yl)-3,4-dihydro-2H-benzo[1,4]oxazin-3-yl]-methanol], in assay [1], the IC50 was 20 to 100 nM. The “I.A. (inhibitory activity), % inhibition rate of writhing” value in the assay with ICR male mice is “+++ (51-80%)”.
For `Cc1ccc(N2c3cccc(-c4nc5c(F)cc(Br)cc5[nH]4)c3OC[C@@H]2CO)nc1` [Example 43, [(S)-8-(6-bromo-4-fluoro-1H-benzimidazol-2-yl)-4-(5-methyl-pyridin-2-yl)-3,4-dihydro-2H-benzo[1,4]oxazin-3-yl]-methanol], in that order: under 20 nM and “++ (20˜50%)”.
Turning to `Cc1ccc(N2c3cccc(-c4nc5cc(F)c(Cl)cc5[nH]4)c3OC[C@@H]2CO)nc1` [Example 45, [(S)-8-(6-chloro-5-fluoro-1H-benzimidazol-2-yl)-4-(5-methyl-pyridin-2-yl)-3,4-dihydro-2H-benzo[1,4]oxazin-3-yl]-methanol], the IC50 in assay [1] is under 20 nM. Further, the “I.A. (inhibitory activity), % inhibition rate of writhing” value in the assay with ICR male mice was “+++ (51-80%)”.
As to `C=Cc1ccc(N2c3cccc(-c4nc5ccc(Cl)cc5[nH]4)c3OC[C@@H]2CO)nc1` [Example 59, [(S)-8-(6-chloro-1H-benzimidazol-2-yl)-4-(5-vinyl-pyridin-2-yl)-3,4-dihydro-2H-benzo[1,4]oxazin-3-yl]-methanol], the IC50 in assay [1] was under 20 nM. Further, in the assay with ICR male mice, the “I.A. (inhibitory activity), % inhibition rate of writhing” value is given as “+++ (51-80%)”.
`CCc1ccc(N2c3cccc(-c4nc5ccc(C#N)cc5[nH]4)c3OC[C@@H]2CO)nc1` [Example 87, 2-[(S)-4-(5-ethyl-pyridin-2-yl)-3-hydroxymethyl-3,4-dihydro-2H-benzo[1,4]oxazin-8-yl]-3H-benzimidazol-5-carbonitrile]: in assay [1], the IC50 is under 20 nM. Besides, the “I.A. (inhibitory activity), % inhibition rate of writhing” value in the assay with ICR male mice is given as “+++ (51-80%)”.
Regarding `COC[C@H]1COc2c(-c3nc4ccc(Cl)cc4[nH]3)cccc2N1c1ccc(C)cn1` [Example 91, (S)-3-methoxymethyl-4-(5-methyl-pyridin-2-yl)-8-(6-chloro-1H-benzimidazol-2-yl)-3,4-dihydro-2H-benzo[1,4]oxazine], the IC50 in assay [1] is under 20 nM. Besides, in the assay with ICR male mice, the “I.A. (inhibitory activity), % inhibition rate of writhing” value is given as “++ (20˜50%)”.
As for `C=Cc1ccc(N2c3cccc(-c4nc5cc(F)c(F)cc5[nH]4)c3OC[C@@H]2CO)nc1` [Example 69, [(S)-8-(5,6-difluoro-1H-benzimidazol-2-yl)-4-(5-vinyl-pyridin-2-yl)-3,4-dihydro-2H-benzo[1,4]oxazin-3-yl]-methanol], the IC50 in assay [1] fell in the range of 20 to 100 nM. The “I.A. (inhibitory activity), % inhibition rate of writhing” value in the assay on ICR male mice is given as “+++ (51-80%)”.
As to `Cc1ccc(N2c3cccc(-c4nc5c(C(F)(F)F)cc(C(F)(F)F)cc5[nH]4)c3OC[C@@H]2CO)nc1` [Example 40, [(S)-8-(4,6-bis-trifluoromethyl-1H-benzimidazol-2-yl)-4-(5-methyl-pyridin-2-yl)-3,4-dihydro-2H-benzo[1,4]oxazin-3-yl]-methanol], the IC50 in assay [1] is 20 to 100 nM. Further, in the assay with ICR male mice, the “I.A. (inhibitory activity), % inhibition rate of writhing” value is “++++ (>80%)”.
On to `COC[C@H]1COc2c(-c3nc4c(F)cc(Br)cc4[nH]3)cccc2N1c1ccc(C)cn1` [Example 94, (S)-8-(6-bromo-4-fluoro-1H-benzimidazol-2-yl)-3-methoxymethyl-4-(5-methyl-pyridin-2-yl)-3,4-dihydro-2H-benzo[1,4]oxazine], for which the IC50 in assay [1] is under 20 nM. Besides, the “I.A. (inhibitory activity), % inhibition rate of writhing” value in the assay with ICR male mice is on record as “+++ (51-80%)”.
For the compound `CCc1ccc(N2c3cccc(-c4nc5c(Cl)cc(C(F)(F)F)cc5[nH]4)c3OC[C@@H]2CO)nc1` [Example 80, [(S)-8-(4-chloro-6-trifluoromethyl-1H-benzimidazol-2-yl)-4-(5-ethyl-pyridin-2-yl)-3,4-dihydro-2H-benzo[1,4]oxazin-3-yl]-methanol], the IC50 in assay [1] is under 20 nM. Besides, the “I.A. (inhibitory activity), % inhibition rate of writhing” value with ICR male mice was “+++ (51-80%)”.
The corresponding values for `COC[C@H]1COc2c(-c3nc4c(C(F)(F)F)cc(C(F)(F)F)cc4[nH]3)cccc2N1c1ccc(C)cn1` [Example 96, (S)-8-(4,6-bis-trifluoromethyl-1H-benzimidazol-2-yl)-3-methoxymethyl-4-(5-methyl-pyridin-2-yl)-3,4-dihydro-2H-benzo[1,4]oxazine] are under 20 nM and “++++ (>80%)”.
In the case of `COC[C@H]1COc2c(-c3nc4ccc(OC(F)(F)F)cc4[nH]3)cccc2N1c1ccc(C)cn1` [Example 99, (S)-3-methoxymethyl-4-(5-methyl-pyridin-2-yl)-8-(6-trifluoromethoxy-1H-benzimidazol-2-yl)-3,4-dihydro-2H-benzo[1,4]oxazine], the IC50 in assay [1] fell in the range of 20 to 100 nM. Moreover, the “I.A. (inhibitory activity), % inhibition rate of writhing” value with ICR male mice is recorded as “++++ (>80%)”.
In the case of `COC[C@H]1COc2c(-c3nc4ccc(C#N)cc4[nH]3)cccc2N1c1ccc(C)cn1` [Example 101, 2-[(S)-3-methoxymethyl-4-(5-methyl-pyridin-2-yl)-3,4-dihydro-2H-benzo[1,4]oxazin-8-yl]-3H-benzimidazol-5-carbonitrile], the IC50 in assay [1] lay in the range of 20 to 100 nM. For the same compound, in the assay on ICR male mice, the “I.A. (inhibitory activity), % inhibition rate of writhing” value is given as “+++ (51-80%)”.
The corresponding values for `COc1ccc2nc(-c3cccc4c3OC[C@H](CO)N4c3ccc(C)cn3)[nH]c2c1` [Example 48, [(S)-8-(6-methoxy-1H-benzimidazol-2-yl)-4-(5-methyl-pyridin-2-yl)-3,4-dihydro-2H-benzo[1,4]oxazin-3-yl]-methanol] are 20 to 100 nM and “++ (20˜50%)”.
The corresponding values for `FC(F)(F)c1ccc2nc(-c3cccc4c3OCCN4c3ccc(Cl)cn3)[nH]c2c1` [Example 20, 4-(5-chloro-pyridin-2-yl)-8-(6-trifluoromethyl-1H-benzimidazol-2-yl)-3,4-dihydro-2H-benzo[1,4]oxazine] are 20 to 100 nM and “++ (20˜50%)”.
Turning to `CCc1ccc(N2c3cccc(-c4nc5c(Br)cc(C(F)(F)F)cc5[nH]4)c3OC[C@@H]2CO)nc1` [Example 81, [(S)-8-(4-bromo-6-trifluoromethyl-1H-benzimidazol-2-yl)-4-(5-ethyl-pyridin-2-yl)-3,4-dihydro-2H-benzo[1,4]oxazin-3-yl]-methanol], the IC50 in assay [1] was under 20 nM. In the assay on ICR male mice, the “I.A. (inhibitory activity), % inhibition rate of writhing” value is “+++ (51-80%)”.
Take `Cc1ccc(N2c3cccc(-c4nc5cc(C)ccc5[nH]4)c3OC[C@@H]2CO)nc1` [Example 51, [(S)-8-(5-methyl-1H-benzimidazol-2-yl)-4-(5-methyl-pyridin-2-yl)-3,4-dihydro-2H-benzo[1,4]oxazin-3-yl]-methanol]: the IC50 in assay [1] is under 20 nM. In addition, the “I.A. (inhibitory activity), % inhibition rate of writhing” value in the assay on ICR male mice is “+ (<20%)”.
On to `CCc1ccc(N2c3cccc(-c4nc5ccc(OC(F)(F)F)cc5[nH]4)c3OC[C@@H]2CO)nc1` [Example 82, [(S)-4-(5-ethyl-pyridin-2-yl)-8-(6-trifluoromethoxy-1H-benzimidazol-2-yl)-3,4-dihydro-2H-benzo[1,4]oxazin-3-yl]-methanol], for which the IC50 in assay [1] was 20 to 100 nM. The “I.A. (inhibitory activity), % inhibition rate of writhing” value in the assay with ICR male mice is recorded as “+++ (51-80%)”.
For the compound `Cc1ccc(N2c3cccc(-c4nc5c(C)c(C)ccc5[nH]4)c3OC[C@@H]2CO)nc1` [Example 52, [(S)-8-(4,5-dimethyl-1H-benzimidazol-2-yl)-4-(5-methyl-pyridin-2-yl)-3,4-dihydro-2H-benzo[1,4]oxazin-3-yl]-methanol], the IC50 in assay [1] is under 20 nM. Besides, in the assay with ICR male mice, the “I.A. (inhibitory activity), % inhibition rate of writhing” value is “++ (20˜50%)”.
The corresponding values for `COC[C@H]1COc2c(-c3nc4ccc(C(F)(F)F)cc4[nH]3)cccc2N1c1ccc(C)cn1` [Example 90, (S)-3-methoxymethyl-4-(5-methyl-pyridin-2-yl)-8-(6-trifluoromethyl-1H-benzimidazol-2-yl)-3,4-dihydro-2H-benzo[1,4]oxazine] are under 20 nM and “+++ (51-80%)”.
Turning to `Cc1ccc(N2c3cccc(-c4nc5ccc(Br)cc5[nH]4)c3OC[C@@H]2CO)nc1` [Example 36, [(S)-8-(6-bromo-1H-benzimidazol-2-yl)-4-(5-methyl-pyridin-2-yl)-3,4-dihydro-2H-benzo[1,4]oxazin-3-yl]-methanol], in assay [1], the concentration for half-maximal inhibition (IC50) was under 20 nM. The “I.A. (inhibitory activity), % inhibition rate of writhing” value in the assay with ICR male mice was “+++ (51-80%)”.
